According to patent US6737383B1, “Herbicidal oxadiazolidines” (priority 1999, dated 2004):

Experiments:
bedstraw = assay: Test B pre/postemergence bedstraw; type: in vivo, Galium aparine; settings: Preemergence
Method in brief: (§1)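 Response is a visual 0-to-10 score relative to untreated plants, where 0 means no effect and 10 means complete control, taken twelve to sixteen days after application. Treatments went onto soil at planting and onto foliage of 1- to 4-leaf plants, using a surfactant-containing non-phytotoxic solvent.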

surinam grass = assay: Test B pre/postemergence surinam grass; type: in vivo, Brachiaria decumbens; settings: for B. signalgrass plant response rating: scale of 0 to 10 where 0 is no effect and 10 is complete control
Method in brief: as §1

cocklebur = assay: Test B pre/postemergence cocklebur; type: in vivo, Xanthium strumarium; settings: for Cocklebur plant response rating: scale of 0 to 10 where 0 is no effect and 10 is complete control
Method in brief: as §1

corn = assay: Test B pre/postemergence corn; type: in vivo, Zea mays; settings: for Corn plant response rating: scale of 0 to 10 where 0 is no effect and 10 is complete control
Method in brief: as §1

crabgrass = assay: Test B pre/postemergence crabgrass; type: in vivo, Digitaria sanguinalis; settings: for Crabgrass plant response rating: scale of 0 to 10 where 0 is no effect and 10 is complete control
Method in brief: as §1

giant foxtail = assay: Test B pre/postemergence giant foxtail; type: in vivo, Setaria faberii; settings: for Giant foxtail plant response rating: scale of 0 to 10 where 0 is no effect and 10 is complete control
Method in brief: as §1

morningglory = assay: Test B pre/postemergence morningglory; type: in vivo, Ipomoea hederacea; settings: for Morningglory plant response rating: scale of 0 to 10 where 0 is no effect and 10 is complete control
Method in brief: as §1

pigweed = assay: Test B pre/postemergence pigweed; type: in vivo, Amaranthus retroflexus; settings: for Redroot pigweed plant response rating: scale of 0 to 10 where 0 is no effect and 10 is complete control
Method in brief: as §1

rape = assay: Test B pre/postemergence rape; type: in vivo, Brassica napus; settings: for Rape plant response rating: scale of 0 to 10 where 0 is no effect and 10 is complete control
Method in brief: as §1

soybean = assay: Test B pre/postemergence soybean; type: in vivo, Glycine max; settings: for Soybean plant response rating: scale of 0 to 10 where 0 is no effect and 10 is complete control
Method in brief: as §1

sugar beet = assay: Test B pre/postemergence sugar beet; type: in vivo, Beta vulgaris; settings: for Sugarbeets plant response rating: scale of 0 to 10 where 0 is no effect and 10 is complete control
Method in brief: as §1

velvetleaf = assay: Test B pre/postemergence velvetleaf; type: in vivo, Abutilon theophrasti; settings: for Velvetleaf plant response rating: scale of 0 to 10 where 0 is no effect and 10 is complete control
Method in brief: as §1

wheat = assay: Test B pre/postemergence wheat; type: in vivo, Triticum aestivum; settings: for Wheat plant response rating: scale of 0 to 10 where 0 is no effect and 10 is complete control
Method in brief: as §1

purple nutsedge = assay: Test B pre/postemergence purple nutsedge; type: in vivo, Cyperus rotundus; settings: for Nutsedge plant response rating: scale of 0 to 10 where 0 is no effect and 10 is complete control
Method in brief: as §1

duck salad = assay: Test B flood test duck salad; type: in vivo, Heteranthera limosa
Method in brief: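 Plants were grown to the 2-leaf stage before treatment with test chemical, then held in a greenhouse for twelve to sixteen days. Injury was visually rated against untreated controls on a 0–10 scale, where 0 is no effect and 10 is complete control.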

[1] = Postemergence, Rate 125 g/ha, scale 0 to 10, 0 is no effect, 10 is complete control
[2] = Postemergence, Rate 250 g/ha, scale 0 to 10, 0 is no effect, 10 is complete control
[3] = Preemergence, Rate 62 g/ha, scale 0 to 10 (0 no effect, 10 complete control)
[4] = Rate 500 g/ha, Postemergence, scale 0 to 10, 0 no effect, 10 complete control

With `Cc1nsc(Cl)c1Cn1c(=O)on(C(=O)N(c2ccccc2)C(C)C)c1=O` [Compound 374] the “Plant response rating, Bedstraw” value (bedstraw; Rate 62 g/ha, scale 0 to 10 (0 no effect, 10 complete control)) was 0, the “Bedstraw plant response rating (0 to 10 scale)” value (bedstraw; Rate 125 g/ha) was 0 and the “Bedstraw plant response rating” value (bedstraw; Rate 250 g/ha, scale of 0 to 10 where 0 is no effect and 10 is complete control) was 0. The “Plant response rating, B. signalgrass” value (surinam grass; [1]) was 0, the “Plant response rating, B. signalgrass” value (surinam grass; [2]) was 0 and the “Plant response rating, B. signalgrass” value (surinam grass; [3]) was 0. The “B. signalgrass plant response rating (0 to 10 scale, 0 is no effect, 10 is complete control)” value (surinam grass; Preemergence, Rate 125 g/ha) was 0, the “B. signalgrass plant response rating” value (surinam grass; Preemergence, Rate 250 g/ha) was 2 and the “B. signalgrass plant response rating” value (surinam grass; Preemergence, Rate 500 g/ha) was 5. The “B. signalgrass plant response rating” value (surinam grass; Rate 62 g/ha, Postemergence) was 0, the “Plant response rating, B. signalgrass” value (surinam grass; [4]) was 0 and the “Plant response rating, Cocklebur” value (cocklebur; [1]) was 0. For the same molecule, the “Plant response rating, Cocklebur” value (cocklebur; [2]) was 0, the “Plant response rating, Cocklebur” value (cocklebur; [3]) was 0 and the “Cocklebur plant response rating (0 to 10 scale)” value (cocklebur; Preemergence, Rate 125 g/ha) was 0. For the same molecule, the “Cocklebur plant response rating” value (cocklebur; Preemergence, Rate 250 g/ha) was 0, the “Cocklebur plant response rating” value (cocklebur; Preemergence, Rate 500 g/ha) was 0 and the “Cocklebur plant response rating” value (cocklebur; Rate 62 g/ha, Postemergence) was 0. The “Plant response rating, Cocklebur” value (cocklebur; [4]) was 0, the “Plant response rating, Corn” value (corn; [1]) was 0 and the “Plant response rating, Corn” value (corn; [2]) was 0. For the same molecule, the “Plant response rating, Corn” value (corn; [3]) was 0, the “Corn plant response rating (0 to 10 scale)” value (corn; Preemergence, Rate 125 g/ha) was 0 and the “Corn plant response rating” value (corn; Preemergence, Rate 250 g/ha) was 0. The “Corn plant response rating” value (corn; Preemergence, Rate 500 g/ha) was 0, the “Corn plant response rating” value (corn; Rate 62 g/ha, Postemergence) was 0 and the “Plant response rating, Corn” value (corn; [4]) was 0. For the same molecule, the “Plant response rating, Crabgrass” value (crabgrass; [1]) was 0, the “Plant response rating, Crabgrass” value (crabgrass; [2]) was 0 and the “Plant response rating, Crabgrass” value (crabgrass; [3]) was 6. For the same molecule, the “Crabgrass plant response rating (0 to 10 scale)” value (crabgrass; Preemergence, Rate 125 g/ha) was 6, the “Crabgrass plant response rating” value (crabgrass; Preemergence, Rate 250 g/ha) was 9 and the “Crabgrass plant response rating” value (crabgrass; Preemergence, Rate 500 g/ha) was 9. For the same molecule, the “Crabgrass plant response rating” value (crabgrass; Rate 62 g/ha, Postemergence) was 0, the “Plant response rating, Crabgrass” value (crabgrass; [4]) was 3 and the “Plant response rating, Giant foxtail” value (giant foxtail; [1]) was 0. For the same molecule, the “Plant response rating, Giant foxtail” value (giant foxtail; [2]) was 2, the “Plant response rating, Giant foxtail” value (giant foxtail; [3]) was 8 and the “Giant foxtail plant response rating (0 to 10 scale)” value (giant foxtail; Preemergence, Rate 125 g/ha) was 9. The “Giant foxtail plant response rating” value (giant foxtail; Preemergence, Rate 250 g/ha) was 10, the “Giant foxtail plant response rating” value (giant foxtail; Preemergence, Rate 500 g/ha) was 10 and the “Giant foxtail plant response rating” value (giant foxtail; Rate 62 g/ha, Postemergence) was 0. For the same molecule, the “Plant response rating, Giant foxtail” value (giant foxtail; [4]) was 8, the “Plant response rating, Morningglory” value (morningglory; [1]) was 5 and the “Plant response rating, Morningglory” value (morningglory; [2]) was 10. For the same molecule, the “Plant response rating, Morningglory” value (morningglory; [3]) was 0, the “Morningglory plant response rating (0 to 10 scale)” value (morningglory; Preemergence, Rate 125 g/ha) was 0 and the “Morningglory plant response rating” value (morningglory; Preemergence, Rate 250 g/ha) was 0. For the same molecule, the “Morningglory plant response rating” value (morningglory; Preemergence, Rate 500 g/ha) was 0, the “Plant response rating, Morningglory” value (morningglory; [4]) was 10 and the “Plant response rating, Redroot pigweed” value (pigweed; [1]) was 0. The “Plant response rating, Redroot pigweed” value (pigweed; [2]) was 2, the “Plant response rating, Redroot pigweed” value (pigweed; [3]) was 0 and the “Redroot pigweed plant response rating (0 to 10 scale)” value (pigweed; Preemergence, Rate 125 g/ha) was 0. For the same molecule, the “Redroot pigweed plant response rating” value (pigweed; Preemergence, Rate 250 g/ha) was 0, the “Redroot pigweed plant response rating” value (pigweed; Rate 62 g/ha, Postemergence) was 0 and the “Plant response rating, Redroot pigweed” value (pigweed; [4]) was 6. For the same molecule, the “Plant response rating, Rape” value (rape; [1]) was 2, the “Plant response rating, Rape” value (rape; [2]) was 2 and the “Plant response rating, Rape” value (rape; [3]) was 0. The “Rape plant response rating (0 to 10 scale)” value (rape; Preemergence, Rate 125 g/ha) was 0, the “Rape plant response rating” value (rape; Preemergence, Rate 250 g/ha) was 2 and the “Rape plant response rating” value (rape; Preemergence, Rate 500 g/ha) was 7. The “Rape plant response rating” value (rape; Rate 62 g/ha, Postemergence) was 0, the “Plant response rating, Rape” value (rape; [4]) was 7 and the “Plant response rating, Soybean” value (soybean; [1]) was 2. The “Plant response rating, Soybean” value (soybean; [2]) was 2, the “Plant response rating, Soybean” value (soybean; [3]) was 0 and the “Soybean plant response rating (0 to 10 scale)” value (soybean; Preemergence, Rate 125 g/ha) was 0. The “Soybean plant response rating” value (soybean; Preemergence, Rate 250 g/ha) was 0, the “Soybean plant response rating” value (soybean; Preemergence, Rate 500 g/ha) was 0 and the “Soybean plant response rating” value (soybean; Rate 62 g/ha, Postemergence) was 2. The “Plant response rating, Soybean” value (soybean; [4]) was 4, the “Plant response rating, Sugarbeets” value (sugar beet; [1]) was 0 and the “Plant response rating, Sugarbeets” value (sugar beet; [2]) was 0. The “Plant response rating, Sugarbeets” value (sugar beet; [3]) was 0, the “Sugarbeets plant response rating (0 to 10 scale)” value (sugar beet; Preemergence, Rate 125 g/ha) was 0 and the “Sugarbeets plant response rating” value (sugar beet; Preemergence, Rate 250 g/ha) was 0. The “Sugarbeets plant response rating” value (sugar beet; Preemergence, Rate 500 g/ha) was 4, the “Sugarbeets plant response rating” value (sugar beet; Rate 62 g/ha, Postemergence) was 0 and the “Plant response rating, Sugarbeets” value (sugar beet; [4]) was 4. The “Plant response rating, Velvetleaf” value (velvetleaf; [1]) was 0, the “Plant response rating, Velvetleaf” value (velvetleaf; [2]) was 0 and the “Plant response rating, Velvetleaf” value (velvetleaf; [3]) was 0. For the same molecule, the “Velvetleaf plant response rating (0 to 10 scale)” value (velvetleaf; Preemergence, Rate 125 g/ha) was 0, the “Velvetleaf plant response rating” value (velvetleaf; Preemergence, Rate 250 g/ha) was 0 and the “Velvetleaf plant response rating” value (velvetleaf; Preemergence, Rate 500 g/ha) was 0. For the same molecule, the “Velvetleaf plant response rating” value (velvetleaf; Rate 62 g/ha, Postemergence) was 0, the “Plant response rating, Velvetleaf” value (velvetleaf; [4]) was 1 and the “Plant response rating, Wheat” value (wheat; [1]) was 0. The “Plant response rating, Wheat” value (wheat; [2]) was 0, the “Plant response rating, Wheat” value (wheat; [3]) was 0 and the “Wheat plant response rating (0 to 10 scale)” value (wheat; Preemergence, Rate 125 g/ha) was 0. The “Wheat plant response rating” value (wheat; Preemergence, Rate 250 g/ha) was 0, the “Wheat plant response rating” value (wheat; Preemergence, Rate 500 g/ha) was 0 and the “Wheat plant response rating” value (wheat; Rate 62 g/ha, Postemergence) was 0. The “Plant response rating, Wheat” value (wheat; [4]) was 0, the “Plant response rating, Nutsedge” value (purple nutsedge; [1]) was 0 and the “Plant response rating, Nutsedge” value (purple nutsedge; [2]) was 0. For the same molecule, the “Plant response rating, Nutsedge” value (purple nutsedge; [3]) was 0, the “Nutsedge plant response rating (0 to 10 scale)” value (purple nutsedge; Preemergence, Rate 125 g/ha) was 0 and the “Nutsedge plant response rating” value (purple nutsedge; Preemergence, Rate 250 g/ha) was 0. The “Nutsedge plant response rating” value (purple nutsedge; Preemergence, Rate 500 g/ha) was 0, the “Nutsedge plant response rating” value (purple nutsedge; Rate 62 g/ha, Postemergence) was 0 and the “Plant response rating, Nutsedge” value (purple nutsedge; [4]) was 0. For the same molecule, the “Plant response rating, Ducksalad (0 to 10 scale, 0 is no effect, 10 is complete control)” value (duck salad; Rate 62 g/ha, flood test species, Pre-emergence, visual evaluation after twelve to sixteen days) was 0, the “Ducksalad plant response rating (0 to 10 scale, 0 is no effect, 10 is complete control)” value (duck salad; Rate 125 g/ha, under heading Pre-emergence, flood test species, visual evaluation after twelve to sixteen days) was 0 and the “Ducksalad plant response rating” value (duck salad; Rate 250 g/ha, Pre-emergence, flood-test species, scale 0 to 10, 0 is no effect, 10 is complete control) was 0. For the same molecule, the “Ducksalad plant response rating” value (duck salad; Rate 500 g/ha, Pre-emergence, flood test species, scale 0 to 10 (0 no effect, 10 complete control)) was 0.
